In the supplement of paper PMC10307832:

Key:
Test in all cases: relative viability (nuclei count vs DMSO), 5 days (fraction); higher = more cells survive
[1] = compound: CN(C)CC1=CC(=CC=C1)N=C(C2=CC=CC=C2)C3=C(NC4=C3C=CC(=C4)C(=O)N(C)C)O + N=C(N)NC(=N)NCCc1ccccc1 [Phenformin] (partner 250 µM)
Method in brief: (§1)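 Lung cancer cell lines were pin-tool dosed in 1536-well plates on the day after seeding, with either a lone drug or a fixed anchor-drug dose plus five library-drug doses (not always all listed) in √10 steps. Nuclei were counted on 4× images after 5 days. Relative viability is the ratio of treated-well to vehicle-well nuclei counts, with each value a median of duplicate plates.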

[2] = compound: CN(C)CC1=CC(=CC=C1)N=C(C2=CC=CC=C2)C3=C(NC4=C3C=CC(=C4)C(=O)N(C)C)O + Nc1nc2[nH]cc(CCc3ccc(C(=O)N[C@@H](CCC(=O)O)C(=O)O)cc3)c2c(=O)[nH]1 [Pemetrexed] (partner 0.2 µM)
Method in brief: as §1

[3] = compound: CN(C)CC1=CC(=CC=C1)N=C(C2=CC=CC=C2)C3=C(NC4=C3C=CC(=C4)C(=O)N(C)C)O + Cc1nc(Nc2ncc(C(=O)Nc3c(C)cccc3Cl)s2)cc(N2CCN(CCO)CC2)n1 [Dasatinib] (partner 0.075 µM)
Method in brief: as §1

[4] = compound: CN(C)CC1=CC(=CC=C1)N=C(C2=CC=CC=C2)C3=C(NC4=C3C=CC(=C4)C(=O)N(C)C)O + Cc1cc(Nc2cc(N3CCN(C)CC3)nc(Sc3ccc(NC(=O)C4CC4)cc3)n2)n[nH]1 [Tozasertib] (partner 0.1 µM)
Method in brief: as §1

[5] = compound: CN(C)CC1=CC(=CC=C1)N=C(C2=CC=CC=C2)C3=C(NC4=C3C=CC(=C4)C(=O)N(C)C)O + O=C(CCCCCCC(=O)Nc1ccccc1)NO [Vorinostat] (partner 1 µM)
Method in brief: as §1

[6] = compound: CN(C)CC1=CC(=CC=C1)N=C(C2=CC=CC=C2)C3=C(NC4=C3C=CC(=C4)C(=O)N(C)C)O + O=C(c1cc(Cc2n[nH]c(=O)c3ccccc23)ccc1F)N1CCN(C(=O)C2CC2)CC1 [Olaparib] (partner 8 µM)
Method in brief: as §1

[7] = compound: CN(C)CC1=CC(=CC=C1)N=C(C2=CC=CC=C2)C3=C(NC4=C3C=CC(=C4)C(=O)N(C)C)O + COc1cc2c(Oc3ccc(NC(=O)C4(C(=O)Nc5ccc(F)cc5)CC4)cc3F)ccnc2cc1OCCCN1CCOCC1 [Foretinib] (partner 0.25 µM)
Method in brief: as §1

[8] = compound: CN(C)CC1=CC(=CC=C1)N=C(C2=CC=CC=C2)C3=C(NC4=C3C=CC(=C4)C(=O)N(C)C)O + CC(=O)c1c(C)c2cnc(Nc3ccc(N4CCNCC4)cn3)nc2n(C2CCCC2)c1=O [Palbociclib] (partner 0.5 µM)
Method in brief: as §1

[9] = compound: CN(C)CC1=CC(=CC=C1)N=C(C2=CC=CC=C2)C3=C(NC4=C3C=CC(=C4)C(=O)N(C)C)O + COc1cccc2cc(-c3nc([C@H]4CC[C@H](C(=O)O)CC4)n4ncnc(N)c34)[nH]c12 [OSI-027] (partner 0.5 µM)
Method in brief: as §1

[10] = compound: CN(C)CC1=CC(=CC=C1)N=C(C2=CC=CC=C2)C3=C(NC4=C3C=CC(=C4)C(=O)N(C)C)O + CCNC(=O)c1noc(-c2cc(C(C)C)c(O)cc2O)c1-c1ccc(CN2CCOCC2)cc1 [Luminespib] (partner 0.01 µM)
Method in brief: as §1

[11] = compound: CN(C)CC1=CC(=CC=C1)N=C(C2=CC=CC=C2)C3=C(NC4=C3C=CC(=C4)C(=O)N(C)C)O + NC(=O)Nc1cc(-c2cccc(F)c2)sc1C(=O)N[C@H]1CCCNC1 [AZD7762] (partner 0.2 µM)
Method in brief: as §1

[12] = compound: CN(C)CC1=CC(=CC=C1)N=C(C2=CC=CC=C2)C3=C(NC4=C3C=CC(=C4)C(=O)N(C)C)O + CC(=O)Nc1cccc(-n2c(=O)n(C3CC3)c(=O)c3c(Nc4ccc(I)cc4F)n(C)c(=O)c(C)c32)c1 [Trametinib] (partner 0.02 µM)
Method in brief: as §1

[13] = compound: CN(C)CC1=CC(=CC=C1)N=C(C2=CC=CC=C2)C3=C(NC4=C3C=CC(=C4)C(=O)N(C)C)O + Nc1ncn([C@H]2C[C@H](O)[C@@H](CO)O2)c(=O)n1 [Decitabine] (partner 2 µM)
Method in brief: as §1

[14] = compound: CN(C)CC1=CC(=CC=C1)N=C(C2=CC=CC=C2)C3=C(NC4=C3C=CC(=C4)C(=O)N(C)C)O
Method in brief: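 Cells of lung cancer lines were placed in 1536-well plates and kept overnight at 37 °C. Pinning then delivered five library-drug doses (not always all listed), spaced by √10, onto plates anchored with vehicle, and the cells were left 5 days without changing medium. One step fixed, permeabilised and stained them with Hoechst, and MetaXpress counted nuclei in 4× images. Viability, as a median over plates, is treated-well nuclei divided by vehicle-well nuclei, with acceptance only at control CV below 25% and at least one doubling.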

SW 900
relative viability ([1]; first compound 0.08 µM): 0.613
relative viability ([1]; first compound 0.253 µM): 0.668
relative viability ([1]; first compound 0.8 µM): 0.646
relative viability ([1]; first compound 2.53 µM): 0.492
relative viability ([1]; first compound 8 µM): 0.602
relative viability ([2]; first compound 0.08 µM): 0.439
relative viability ([2]; first compound 0.253 µM): 0.495
relative viability ([2]; first compound 0.8 µM): 0.497
relative viability ([2]; first compound 2.53 µM): 0.535
relative viability ([2]; first compound 8 µM): 0.445
relative viability ([3]; first compound 0.08 µM): 0.364
relative viability ([3]; first compound 0.253 µM): 0.582
relative viability ([3]; first compound 0.8 µM): 0.55
relative viability ([3]; first compound 2.53 µM): 0.622
relative viability ([3]; first compound 8 µM): 0.573
relative viability ([4]; first compound 0.08 µM): 0.669
relative viability ([4]; first compound 0.253 µM): 0.58
relative viability ([4]; first compound 0.8 µM): 0.519
relative viability ([4]; first compound 2.53 µM): 0.562
relative viability ([4]; first compound 8 µM): 0.552
relative viability ([5]; first compound 0.08 µM): 0.56
relative viability ([5]; first compound 0.253 µM): 0.495
relative viability ([5]; first compound 0.8 µM): 0.452
relative viability ([5]; first compound 2.53 µM): 0.606
relative viability ([5]; first compound 8 µM): 0.606
relative viability ([6]; first compound 0.08 µM): 0.813
relative viability ([6]; first compound 0.253 µM): 0.962
relative viability ([6]; first compound 0.8 µM): 1.02
relative viability ([6]; first compound 2.53 µM): 0.8
relative viability ([6]; first compound 8 µM): 0.967
relative viability ([7]; first compound 0.08 µM): 0.867
relative viability ([7]; first compound 0.253 µM): 0.842
relative viability ([7]; first compound 0.8 µM): 0.7
relative viability ([7]; first compound 2.53 µM): 0.887
relative viability ([7]; first compound 8 µM): 0.861
relative viability ([8]; first compound 0.08 µM): 0.517
relative viability ([8]; first compound 0.253 µM): 0.481
relative viability ([8]; first compound 0.8 µM): 0.527
relative viability ([8]; first compound 2.53 µM): 0.569
relative viability ([8]; first compound 8 µM): 0.622
relative viability ([9]; first compound 0.08 µM): 0.677
relative viability ([9]; first compound 0.253 µM): 0.652
relative viability ([9]; first compound 0.8 µM): 0.663
relative viability ([9]; first compound 2.53 µM): 0.664
relative viability ([9]; first compound 8 µM): 0.537
relative viability ([10]; first compound 0.08 µM): 0.175
relative viability ([10]; first compound 0.253 µM): 0.167
relative viability ([10]; first compound 0.8 µM): 0.188
relative viability ([10]; first compound 2.53 µM): 0.18
relative viability ([10]; first compound 8 µM): 0.202
relative viability ([11]; first compound 0.08 µM): 0.664
relative viability ([11]; first compound 0.253 µM): 0.581
relative viability ([11]; first compound 0.8 µM): 0.55
relative viability ([11]; first compound 2.53 µM): 0.649
relative viability ([11]; first compound 8 µM): 0.685
relative viability ([12]; first compound 0.08 µM): 0.819
relative viability ([12]; first compound 0.253 µM): 0.738
relative viability ([12]; first compound 0.8 µM): 0.702
relative viability ([12]; first compound 2.53 µM): 1.04
relative viability ([12]; first compound 8 µM): 1.24
relative viability ([13]; first compound 0.08 µM): 0.385
relative viability ([13]; first compound 0.253 µM): 0.48
relative viability ([13]; first compound 0.8 µM): 0.43
relative viability ([13]; first compound 2.53 µM): 0.409
relative viability ([13]; first compound 8 µM): 0.472
relative viability ([14]; 0.08 µM): 0.997
relative viability ([14]; 0.253 µM): 0.886
relative viability ([14]; 0.8 µM): 0.983
relative viability ([14]; 2.53 µM): 0.934
relative viability ([14]; 8 µM): 0.937
